Values quoted from earlier work as cited in US20220228277A1, “COMPACT GENERATOR FOR GENERATING STERILIZING MATERIALS” (priority 2021, published 2022).

Tests used:
[1] = in a year
[2] = 20° C. water; also printed as 29.9 ppm
[3] = environment dependent

Structure (SMILES) | decay of sealed H2O2-H2O solution [1] [%] | solubility of O3 in water [2] [µg/mL] | natural life of O3 (turns into O2) [3] [min]
OO [H2O2, hydrogen peroxide] | 10 |  | 
O=[O+][O-] [O3, ozone] |  | 29.9 | 20 to 30
